US8829200B2, “Benzimidazole inhibitors of leukotriene production” (Boehringer Ingelheim International GmbH, priority 2010, dated 2014)

Experiments:
[1] = system: biomarkers for myocardial infarction risk; details: clinical trial; cited from earlier work
[2] = target: recombinant human FLAP protein (Homo sapiens (Human), UniProt P20292); experiment: FLAP binding assay (Scintillation Proximity Assay); details: displacement of [125I]L-691,831, membranes of sf9 cells expressing human FLAP; read-out: SPA IC50
recombinant human FLAP protein, sequence (P20292 whole entry): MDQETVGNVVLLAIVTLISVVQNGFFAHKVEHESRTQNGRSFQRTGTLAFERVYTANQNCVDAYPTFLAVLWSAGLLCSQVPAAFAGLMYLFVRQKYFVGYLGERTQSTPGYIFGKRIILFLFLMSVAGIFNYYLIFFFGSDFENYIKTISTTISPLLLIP
Method: Compounds are assessed for the ability to bind to FLAP in a binding assay that measures compound-specific displacement of an iodinated (^125I) FLAP inhibitor via a Scintillation Proximity Assay format (adapted from S. Charleson et al., Mol. Pharmacol., 1992, 41, 873-879).
Cell pellets produced from sf9 insect cells expressing recombinant human FLAP protein are resuspended in buffer A [15 mM Tris-HCl (pH 7.5), 2 mM MgCl2, 0.3 mM EDTA, 1 mM PMSF]. The cells are lysed with a Dounce homogenizer and the material is centrifuged at 10,000×g for 10 minutes. The supernatant is then collected and centrifuged at 100,000×g for 60 minutes. To prepare membrane protein for an assay, an aliquot of the 100,000×g pellet is resuspended in 1 ml of buffer A, Dounce homogenized, and finally subjected to polytron mixing (30 seconds). Membrane protein (25 μl, 5 μg) is mixed with WGA SPA beads (Amersham) and stirred for 1 h. To an assay plate (Perkin Elmer FlexiPlate) is added 25 μl of test compound prepared in Binding buffer [100 mM Tris (pH 7.5), 140 mM NaCl, 5% glycerol, 2 mM EDTA, 0.5 mM TCEP, 0.05% Tween 20], 25 μl of [^125I]L-691,831 (an iodinated analog of MK-591, Charleson et al. Mol. Pharmacol., 41, 873-879, 1992) and finally 50 μl of the bead/protein mixture. (final concentrations: beads, 200 μg/well; protein, 5 μg/well; [^125I] probe, 0.08 nM/well (17 nCi/well). The plates are shaken for 2 h before reading on a Microbeta plate reader. Non-specific binding is determined by the addition of 10 μM cold L-691,831 compound.

[3] = system: synthesis of LTB4 in human whole blood; experiment: human whole blood LTB4 production inhibition assay; type: cell-based; details: heparinized human whole blood, calcimycin-stimulated, plasma LTB4; read-out: hWB IC50
Method: Compounds are additionally tested in a human whole blood assay to determine their ability to inhibit the synthesis of LTB4 in a cellular system. Compounds are combined with heparinized human whole blood and incubated for 15 minutes at 37° C. Calcimycin ([…], prepared in phosphate-buffered saline, pH 7.4) is then added and the mixture is incubated for another 30 minutes at 37° C. The samples are centrifuged for 5 min at low speed (1500×g) and the plasma layer is removed. Plasma LTB4 concentrations are then measured using an antibody-based homogenous time-resolved fluorescence method (CisBio, Bedford, Mass.).

[4] = system: human glomerulonephritis; details: clinical trial; cited from earlier work
[5] = system: apoE/LDL-R double knockout mice; details: oral dosing, high-fat diet from 2 months of age to 6 months; cited from earlier work
[6] = system: ApoE−/−xCD4dnTβRII mice; details: administration via infusion, treated for four weeks; cited from earlier work

SMILES | IC50 [2] [nM] | IC50 [3] [nM] | further results
O=C(O)[C@@H](c1ccc(OCc2ccc3ccccc3n2)cc1)C1CCCC1 [DG-031] | – | – | effect on biomarkers for myocardial infarction risk [1]: dose-dependent suppression of several biomarkers
CCNC(=O)c1ccccc1-c1nc2cc(-c3cnc(N)nc3)ccc2n1C(C)(C)C [Example 23, 2-[5-(2-Amino-pyrimidin-5-yl)-1-tert-butyl-1H-benzoimidazol-2-yl]-N-ethyl-benzamide] | 17.4 | 2230 | –
CN(C)CCNC(=O)c1ccccc1-c1nc2cc(-c3cnc(N)nc3)ccc2n1C(C)(C)C [Example 24, 2-[5-(2-Amino-pyrimidin-5-yl)-1-tert-butyl-1H-benzoimidazol-2-yl]-N-(2-dimethylamino-ethyl)-benzamide] | 140 | 2870 | –
CC(C)(C)n1c(-c2ccccc2C(=O)NC2CCNCC2)nc2cc(-c3cnc(N)nc3)ccc21 [Example 25, 2-[5-(2-Amino-pyrimidin-5-yl)-1-tert-butyl-1H-benzoimidazol-2-yl]-N-piperidin-4-yl-benzamide] | 460 | > 5000 | –
CC(C)NC(=O)c1ccccc1-c1nc2cc(-c3cnc(N)nc3)ccc2n1C(C)(C)C [Example 26, 2-[5-(2-Amino-pyrimidin-5-yl)-1-tert-butyl-1H-benzoimidazol-2-yl]-N-isopropyl-benzamide] | 34.6 | 4900 | –
CC(C)(C)n1c(-c2ccccc2C(=O)N2CCOCC2)nc2cc(-c3cnc(N)nc3)ccc21 [Example 28, {2-[5-(2-Amino-pyrimidin-5-yl)-1-tert-butyl-1H-benzoimidazol-2-yl]-phenyl}-morpholin-4-yl-methanone] | 520 | > 5000 | –
CN(C)C(=O)c1ccccc1-c1nc2cc(-c3cnc(N)nc3)ccc2n1C(C)(C)C [Example 29, 2-[5-(2-Amino-pyrimidin-5-yl)-1-tert-butyl-1H-benzoimidazol-2-yl]-N,N-dimethyl-benzamide] | 200 | 3050 | –
CNC(=O)c1cc(F)ccc1-c1nc2cc(-c3cnc(N)nc3)ccc2n1C(C)(C)C [Example 33, 2-[5-(2-Amino-pyrimidin-5-yl)-1-tert-butyl-1H-benzoimidazol-2-yl]-5-fluoro-N-methyl-benzamide] | 20 | 3080 | –
CNC(=O)c1cccc(F)c1-c1nc2cc(-c3cnc(N)nc3)ccc2n1C(C)(C)C [Example 34, 2-[5-(2-Amino-pyrimidin-5-yl)-1-tert-butyl-1H-benzoimidazol-2-yl]-3-fluoro-N-methyl-benzamide] | 15.8 | 906 | –
CC(C)(C)Sc1c(CC(C)(C)C(=O)O)n(Cc2ccc(Cl)cc2)c2ccc(OCc3ccc4ccccc4n3)cc12 [MK-591] | – | – | effect on proteinuria [4]: reduce proteinuria
CC(C)c1ccc2c(c1)c(SC(C)(C)C)c(CC(C)(C)C(=O)O)n2Cc1ccc(Cl)cc1 [MK-886] | – | – | decrease in plaque coverage in the aorta [5]: 56%; decrease in plaque coverage in the aortic root [5]: 43%; decrease in plaque area in the aortic root [6]: ~40%
